The source of these data is PubChem BioAssay (NCI).

Structures are written as SMILES. Several values for one entry are separate records, joined by “and”; a condition that tells them apart may be missing. Identical values can stand only once.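 The compound was tested at five concentrations on cells cultured in 96-well plates, with a 48-hour exposure period. GI50: concentration for 50% inhibition of growth. Definition used: TGI = concentration required for complete inhibition of growth.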

Test systems include HOP-62 NSCLC; IGROV1 ovarian; KM12 colon; NCI-H522 lung; NCI/ADR-RES ovarian; OVCAR-8 ovarian; SF-539 CNS; SK-OV-3 ovarian; SNB-75 CNS; UO-31 renal.
Assay in all cases: NCI tumour cell line growth inhibition, 48 h

Regarding `NNc1c(C(N)=O)c2c(N)ncnc2n1C1OC(CO)C(O)C1O` (stereo not drawn), the GI50 in the assay with HOP-62 NSCLC is 0.124 µM; in the assay with IGROV1 ovarian it was 0.0276 µM and 0.0476 µM; with KM12 colon, 0.0453 µM and 0.0475 µM; with NCI-H522 lung it was 0.0328 µM and 0.152 µM; in the assay with NCI/ADR-RES ovarian it was 0.0179 µM and 0.0374 µM; in the assay on OVCAR-8 ovarian, 0.0178 µM and 0.0343 µM. The GI50 is 0.0529 µM and 0.0718 µM in the assay with SF-539 CNS; < 0.0137 µM and 0.0273 µM in the assay on SK-OV-3 ovarian; 0.106 µM in the assay with SNB-75 CNS; < 0.0143 µM and 0.0246 µM in the assay on UO-31 renal. Besides, the TGI is 1.12 µM and 3.54 µM in the assay on IGROV1 ovarian; 12.4 µM in the assay on KM12 colon; 0.289 µM and 0.754 µM with NCI/ADR-RES ovarian; 11.5 µM and 3.51 µM in the assay with OVCAR-8 ovarian; 1.15 µM and 0.273 µM in the assay with SF-539 CNS; 0.413 µM and 0.361 µM in the assay with SK-OV-3 ovarian. Moreover, the TGI was 1.09 µM and 0.448 µM with SNB-75 CNS; 0.0959 µM and 0.454 µM in the assay on UO-31 renal.
`CC(C)=C[C@@H]1C[C@H](C)[C@H]2CC[C@H](C)c3c(O)c(OC4OC(C)C(O)C(O)C4O)c(C)c1c32` (stereo partly drawn): the GI50 is 19.2 µM in the assay with HOP-62 NSCLC; 13.7 µM with IGROV1 ovarian; 2.63 µM in the assay on KM12 colon; 16.1 µM in the assay on NCI-H522 lung; 0.648 µM in the assay on NCI/ADR-RES ovarian; 14.6 µM in the assay on OVCAR-8 ovarian. Moreover, the GI50 was 17.9 µM in the assay with SF-539 CNS, 18.9 µM in the assay with SK-OV-3 ovarian, 14.4 µM with SNB-75 CNS and 14.6 µM in the assay on UO-31 renal. The TGI in the assay with HOP-62 NSCLC amounted to 34.7 µM; with IGROV1 ovarian it was 26.8 µM; in the assay on KM12 colon, 8.16 µM; in the assay with NCI-H522 lung it was 29.8 µM; in the assay on NCI/ADR-RES ovarian, 16.8 µM; with OVCAR-8 ovarian, 28 µM. For the same compound, the TGI with SF-539 CNS turned out to be 33 µM; with SK-OV-3 ovarian, 32.9 µM; in the assay with SNB-75 CNS, 27.7 µM; in the assay on UO-31 renal, 27.8 µM.
For `S=c1ssnc1-c1cc2ccccc2o1`, the GI50 with HOP-62 NSCLC was 17.3 µM; with IGROV1 ovarian it was 4.09 µM; in the assay with KM12 colon, 14.1 µM; in the assay on NCI-H522 lung, 20.7 µM; with NCI/ADR-RES ovarian, 25.7 µM; in the assay with OVCAR-8 ovarian it was 11.3 µM. The GI50 was 15.3 µM in the assay on SF-539 CNS, 18.7 µM in the assay on SK-OV-3 ovarian, 23.3 µM with SNB-75 CNS and 13.4 µM in the assay on UO-31 renal. For the same compound, the TGI with HOP-62 NSCLC stood at 37.6 µM; with IGROV1 ovarian, 29 µM; in the assay with KM12 colon it was 35.1 µM; in the assay on NCI-H522 lung, 45.9 µM; in the assay on NCI/ADR-RES ovarian, 90.7 µM; in the assay with OVCAR-8 ovarian it was 29.4 µM. The TGI stood at 29.8 µM with SF-539 CNS, 39.2 µM in the assay with SK-OV-3 ovarian, 95.8 µM in the assay with SNB-75 CNS and 30 µM with UO-31 renal.
Consider `CCOc1ccc2nc(NC(=O)C(=O)C3C(=O)C(CC4C(=O)c5ccccc5C4=O)C(=O)CC3(C)C)sc2c1` (stereo not drawn), for which the TGI with HOP-62 NSCLC, in the assay on IGROV1 ovarian, in the assay with KM12 colon, in the assay with NCI-H522 lung, in the assay on NCI/ADR-RES ovarian and in the assay on OVCAR-8 ovarian was over 100 µM throughout. In addition, the TGI with SF-539 CNS, with SK-OV-3 ovarian, in the assay with SNB-75 CNS and in the assay on UO-31 renal was over 100 µM in each case.
